Where two headings read alike, the source gives them in different places.
Experiments:
eye of Dutch rabbits = assay: 13-week repeated ocular administration, irritable response in cornea, conjunctiva or iris; type: in vivo
Protocol: The administration was performed 4 times a day with 2-hour intervals for 13 weeks. The cornea, conjunctiva and iris were observed about occurrence of irritable response before, and 4, 8, and 13 weeks after the initiation of the administration. The observation was performed within the time from 0.5 hour to 2 hours after the last administration of the day. The cornea was observed about a presence of opacity and its area in the cornea. The conjunctiva was observed about occurrence of hyperemia, redness and swelling. The iris was observed about occurrence of hyperemia, congestion, swelling and hemorrhage. The ratio of cases showing irritable response in the cornea, conjunctiva or iris was evaluated by percent in the group.

[1] = test system: eye of healthy volunteers; assay: Intraocular pressure lowering effect in healthy volunteers (applanation tonometer); type: in vivo, human; conditions: for Intraocular pressure lowering effect (difference in IOP between test eye and control eye): 12 μg/eye; for lowered the IOP by, as compared with the control eye: 12 μg
Protocol: The vehicle solution was ocularly administered to the contralateral eye (control eye). Intraocular pressure (IOP) was measured by means of an applanation tonometer before, and 4, 6, and 12 hours after the administration. The IOP lowering effect of the test compound was evaluated based on difference in IOP between test eye and the control eye at each time point of IOP measurement.

monkey eyes [2] = assay: Effects on IOP in monkey eyes (applanation pneumatonometer); type: in vivo, cynomolgus monkeys; conditions: 15 μg/eye
Protocol: (§1) Nine male cynomolgus monkeys (body weights of animals ranged between 3.2 and 5.4 kg) without abnormalities in the anterior segment of the eye were used.
(§2) The left eye received an equal volume of the vehicle.
Intraocular pressure (IOP) measurements were conducted by means of an applanation pneumatonometer (Model 30 Classic™, Mentor O & O, Inc., USA) immediately before the administration (0-hour), and at 2, 4, 8, 12, 24, 28, and 32 hours after the administration.

monkey eyes [3] = assay: Eye irritancy scoring in monkeys (criteria based on Draize test); type: in vivo, cynomolgus monkeys; parameters: key to Eye irritancy (Score) Conjunctivae Chemosis: 0: No swelling; 1: Any swelling above normal (includes nictitating membrane); 2: Obvious swelling with partial eversion of the lids; 3: Swelling with lids about half closed; 4: Swelling with lids about half closed to completely closed; conditions: 15 μg/eye
Text: as §1, §2
Eye irritancy was scored according to the criteria presented in Table 4 at the same time points as IOP measurements. These criteria are based on those of Draize test.

healthy human eyes = conditions: dose of 5 μg, cited from earlier work
monkey eyes [4] = conditions: dose of 3 μg; cited from earlier work
monkey eyes [5] = conditions: 50 μg per eye; cited from earlier work
eye of white rabbits = assay: Incidence of conjunctival hyperemia after single ocular administration; conditions: 50 μg eye drop, once to one eye, two hours after the administration
Protocol: The presence of conjunctival hyperemia was examined at two hours after the administration and the ratio of cases showing conjunctival hyperemia was evaluated by percent in each group.

CC(C)OC(=O)CCC/C=C\C[C@@H]1[C@@H](CCC(=O)CCc2ccccc2)[C@H](O)C[C@@H]1O [13,14-dihydro-15-keto-17-phenyl-18,19,20-trinor-PGF2α isopropyl ester]
effect on the cornea, conjunctiva and iris (eye of Dutch rabbits; 30 μg/eye each 4 times a day for 13 weeks): no effect | Incidence rate of ocular irritation (eye of Dutch rabbits; 4 weeks after initiation, 30 μg/eye 4 times/day): 0% | Incidence rate of ocular irritation (eye of Dutch rabbits; 8 weeks after initiation, 30 μg/eye 4 times/day): 0% | Incidence rate of ocular irritation (eye of Dutch rabbits; 13 weeks after initiation, 30 μg/eye 4 times/day): 0% | Incidence rate of ocular irritation (eye of Dutch rabbits; Pre (before initiation of administration)): 0% | Intraocular pressure lowering effect (difference in IOP between test eye and control eye) ([1]; 4 hours after administration): −1.0 mmHg | lowered the IOP by, as compared with the control eye ([1]; 4 hours after the administration): 1.0 mmHg | Intraocular pressure lowering effect (difference in IOP between test eye and control eye) ([1]; 6 hours after administration): −0.8 mmHg | lowered the IOP by, as compared with the control eye ([1]; 6 hours after the administration): 0.8 mmHg | Intraocular pressure lowering effect (difference in IOP between test eye and control eye) ([1]; 12 hours after administration): −1.1 mmHg | lowered the IOP by, as compared with the control eye ([1]; 12 hours after the administration): 1.1 mmHg | IOP (monkey eyes [2]; 0 hr (immediately before administration), right eye, Mean ± SE): 19.7 ± 0.6 mmHg | IOP reduction (monkey eyes [2]; topical): significant IOP reduction | Eye irritancy (Score) Conjunctivae Chemosis (monkey eyes [3]; 2 hr after administration): 0 | Eye irritancy (Score) Conjunctivae Chemosis (monkey eyes [3]; 4 hr after administration): 0 | Eye irritancy (Score) Conjunctivae Chemosis (monkey eyes [3]; 8 hr after administration): 0 | Eye irritancy (Score) Conjunctivae Chemosis (monkey eyes [3]; 12 hr after administration): 0 | Eye irritancy (Score) Conjunctivae Chemosis (monkey eyes [3]; 24 hr after administration): 0 | Eye irritancy (Score) Conjunctivae Chemosis (monkey eyes [3]; 28 hr after administration): 0 | Eye irritancy (Score) Conjunctivae Chemosis (monkey eyes [3]; 32 hr after administration): 0 | Eye irritancy (Score) Conjunctivae Chemosis (monkey eyes [3]; Before administration): 0 | signs or symptoms of ocular irritation (monkey eyes [3]; after topical administration): no signs or symptoms | intraocular pressure reducing effects (healthy human eyes; healthy human eyes): showed intraocular pressure reducing effects | side effect such as conjunctival hyperemia, ocular irritation and foreign body sensation (healthy human eyes; in the human): no side effect | intraocular pressure reducing effects (monkey eyes [4]): showed intraocular pressure reducing effects | intraocular pressure reducing effects (monkey eyes [5]): showed intraocular pressure reducing effects | Incidence Rate of Conjunctival Hyperemia (eye of white rabbits): 33%

Reference: US20040254247A1, “Method and composition for treatnment of ocular hypertension and glaucoma” (priority 2001, published 2004)
